In US7169761B2, “Azulene derivatives and salts thereof” (Astellas Pharma Inc., priority 2002, dated 2007) one finds IC50 and Hypoglycemic activity data, which are given here for seven compounds.

One assay addresses T1, human SGLT2 (Homo sapiens, UniProt P31639).
T1 construct: expressed in transfected cells; host or cells: CHO-K1
T1 sequence (P31639 1-672): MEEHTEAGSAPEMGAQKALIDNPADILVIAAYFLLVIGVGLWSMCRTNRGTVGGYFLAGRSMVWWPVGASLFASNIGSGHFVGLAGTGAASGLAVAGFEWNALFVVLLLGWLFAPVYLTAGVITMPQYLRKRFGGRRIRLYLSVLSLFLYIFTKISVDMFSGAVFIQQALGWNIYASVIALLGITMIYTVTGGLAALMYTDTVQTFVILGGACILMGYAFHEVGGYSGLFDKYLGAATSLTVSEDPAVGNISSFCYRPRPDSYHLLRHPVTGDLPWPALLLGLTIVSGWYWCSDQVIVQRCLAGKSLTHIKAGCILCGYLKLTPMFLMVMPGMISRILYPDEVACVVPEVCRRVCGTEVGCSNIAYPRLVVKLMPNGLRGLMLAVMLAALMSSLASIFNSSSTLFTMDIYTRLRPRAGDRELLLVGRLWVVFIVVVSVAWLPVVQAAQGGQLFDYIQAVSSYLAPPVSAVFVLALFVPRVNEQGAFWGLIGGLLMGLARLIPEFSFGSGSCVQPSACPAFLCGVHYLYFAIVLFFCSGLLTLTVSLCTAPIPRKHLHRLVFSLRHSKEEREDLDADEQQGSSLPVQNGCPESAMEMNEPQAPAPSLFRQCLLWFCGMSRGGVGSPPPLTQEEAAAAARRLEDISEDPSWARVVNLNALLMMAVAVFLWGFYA
In words: Inhibition of human Na+-glucose cotransporter (human SGLT2) activity: methyl-α-D-glucopyranoside intake in CHO cells stably expressing human SGLT2. The conditions noted are these: inhibition of methyl-α-D-(U-14C)glucopyranoside intake, CHO cells stably expressing human SGLT2, 37° C., two hours. The format is cell-based. From the text: [Inhibition of Human Na^+-Glucose Cotransporter (Human SGLT2) Activity]
(1) Preparation of Human SGLT 2 Expression Vector
First, single-strand cDNA was reversely transcripted from total RNA originating from the human kidney (manufactured by BD Biosciences Clontech) using a Superscript II (manufactured by Invitrogen Corporation) and a random hexamer. Second, using the cDNA as a template, a DNA fragment encoding a human SGLT2 (Wells, R. G. et al., Am. J. Physiol., 1992, 263(3) F459) was amplified by the PCR reaction using Pyrobest DNA polymerase (manufactured by Takara Bio Inc.). That is, a Hind III site and an EcoRI site were inserted into the 5′ side and the 3′ side of the DNA fragment, respectively by using primers.
The amplified fragment was cloned into a pCR2.1-Topo vector using a Topo TA Cloning Kit (manufactured by Invitrogen Corporation) and the cloned vector was transfected into a competent cell of Escherichia coli JM109. Ampicillin-resistant clones were cultured in a LB medium containing ampicillin (100 mg/l). A plasmid was purified from the cultured Escherichia coli using the method of Hanahan (see Maniatis et al., “Molecular Cloning”). A DNA fragment for encoding a human SGLT2 was obtained by the Hind III/EcoRI digestion of the plasmid and ligated and cloned to the same site of the expression vector pcDNA 3.1 (manufactured by Invitrogen Corporation) using a DNA ligase (manufactured by Roche Diagnostics). The ligated clone was transfected into a competent cell of Escherichia coli JM109 in the same manner as described above and cultured in a LB medium containing ampicillin, and a human SGLT2 expression vector was obtained using the method of Hanahan.
(2) Preparation of Human SGLT2 Expressed Cells
The human SGLT2 expression vector was transfected into a CHO-K1 cell using Lipofectamine2000 (manufactured by Invitrogen Corporation). The cell was cultured in a Ham's F12 medium (manufactured by Nissui Pharmaceutical Co., Ltd.) containing penicillin (50 IU/ml, manufactured by Dainippon Pharmaceutical Co., Ltd.), streptomycin (50 μg/ml, manufactured by Dainippon Pharmaceutical Co., Ltd.), Geneticin (40 μg/ml, manufactured by Invitrogen Corporation), and 10% fetal bovine serum in the presence of 5% CO2 at 37° C. for two weeks, and Geneticin-resistant clones were obtained.
(3) Inhibition of Methyl-α-D-Glucopyranoside Intake
After removing the medium of a CHO cell which stably expresses the human SGLT2, a pretreatment buffer solution (buffer solution of pH 7.4 containing choline chloride (140 mM), potassium chloride (2 mM), calcium chloride (1 mM), magnesium chloride (1 mM), 2-[4-(2-hydroxyethyl)1-piperazinyl]ethanesulfonic acid (10 mM), and tris(hydroxymethyl) aminomethane (5 mM)) was added in the amount of 100 μl per well, and incubated at 37° C. for 20 minutes.
11 μl of methyl-α-D-(U-14C) glucopyranoside (manufactured by Amersham Pharmacia Biotech) was mixed with 1,000 μl of a buffer solution for intake containing a test compound (buffer solution of pH 7.4 containing sodium chloride (140 mM), potassium chloride (2 mM), calcium chloride (1 mM), magnesium chloride (1 mM), methyl-α-D-glucopyranoside (50 μM), 2-[4-(2-hydroxyethyl)1-piperazinyl]ethanesulfonic acid (10 mM), and tris(hydroxymethyl)aminomethane (5 mM)) to prepare a buffer solution for intake. A buffer solution for intake without a test compound was prepared for a control group. A buffer solution for basal intake without a test compound containing coline chloride (140 mM) instead of sodium chloride for measuring the basal intake was prepared as well.
After removing the pretreatment buffer solution, the buffer solution for intake was added (25 μl per well) and incubated at 37° C. for two hours. […]

In assay [1] the test system is blood glucose of KK-A^y mice. In words: Hypoglycemic activity confirmation test in fed KK-Ay mice. The format is in vivo, mouse. The conditions noted are these: rate of decrease in blood glucose AUC 0–8 hours vs control group; fed male KK-A^y mice, oral, 3 mg/10 ml suspension at 10 ml/kg. Here is the method: [Hypoglycemic Activity Confirmation Test]
Fed KK-A^y mice (CLEA Japan, Inc., male) were used. The test compound was suspended in 0.5% methylcellulose solution to a concentration of 3 mg/10 ml. The weight of each mouse was measured. The test compound suspension was orally administered forcibly to the mice at a dose of 10 ml/kg. Only 0.5% methylcellulose solution was administered to the mice of a control group. Each group consisted of six mice. Blood was collected from the tail vein immediately before administering the compound and one, two, four, and eight hours after administering the compound. The blood glucose value was measured using a glucose CII Test Wako (manufactured by Wako Pure Chemical Industries, Ltd.). The intensity of hypoglycemic activity was determined by calculating the area under the blood glucose value-time curve (AUC) using a trapezoidal method from the glucose value of 0–8 hours after administering the compound and calculating the rate (%) of the decrease in the AUC of the drug-administered group from that of the control group.

The term IC50 denotes the concentration that inhibits the measured activity by half. Read a low IC50 as inhibition by little substance. `CCOc1ccc(Cc2cc3cccccc-3c2)cc1[C@@H]1O[C@H](CO)[C@@H](O)[C@H](O)[C@H]1O` [Example 7, (1S)-1,5-anhydro-1-[5-(azulen-2-ylmethyl)-2-ethoxyphenyl]-D-glucitol]: the midpoint of inhibition at human SGLT2, the IC50, lay at 16 nM.
On human SGLT2, `Cc1ccc(Cc2cc3cccccc-3c2)cc1[C@@H]1O[C@H](CO)[C@@H](O)[C@H](O)[C@H]1O` [Example 11] had a half-inhibitory concentration (IC50) of 29 nM.
Same read-out and setting: to `OC[C@H]1O[C@@H](c2cccc(Cc3ccc4cccc-4cc3)c2)[C@H](O)[C@@H](O)[C@@H]1O` [Example 21] belongs 99 nM; to `OC[C@H]1O[C@@H](c2cccc(Cc3cc4cccccc-4c3)c2)[C@H](O)[C@@H](O)[C@@H]1O` [Example 25], 22 nM.
Regarding `COc1ccc(Cc2cc3cccccc-3c2)cc1[C@@H]1O[C@H](CO)[C@@H](O)[C@H](O)[C@H]1O` [Example 28], on human SGLT2, half-maximal inhibition (IC50) required 16 nM. The Hypoglycemic activity in assay [1] amounted to 46%.
The matching figures for `COc1cc(OC)c([C@@H]2O[C@H](CO)[C@@H](O)[C@H](O)[C@H]2O)cc1Cc1cc2cccccc-2c1` [Example 60, (1S)-1,5-anhydro-1-[5-(azulen-2-ylmethyl)-2,4-dimethoxyphenyl]-D-glucitol]: 5.7 nM and 45%.
Turning to `OC[C@H]1O[C@@H](c2cc(Cc3cc4cccccc-4c3)ccc2O)[C@H](O)[C@@H](O)[C@@H]1O` [Example 75, (1S)-1,5-anhydro-1-[5-(azulen-2-ylmethyl)-2-hydroxyphenyl]-D-glucitol], the midpoint of inhibition against human SGLT2, the IC50, lay at 8.9 nM.
